Patent US10065943B2, “Pyrrolidine derivatives as angiotensin II type 2 antagonists” (NOVARTIS AG, priority 2015, dated 2018)

Tests used:
human AT2 receptor = target: T1, human AT2 receptor (Homo sapiens, UniProt P50052); experiment: AT2 receptor binding ([125I]CGP 42112A displacement, CHO-K1 membranes); conditions: [125I]CGP 42112A 0.05 nM, membranes of CHO-K1 cells expressing human AT2 receptor; Ki from IC50 by Cheng-Prussoff equation; read-out: Ki
T1 construct: membranes prepared in house
T1 sequence (P50052 1-363): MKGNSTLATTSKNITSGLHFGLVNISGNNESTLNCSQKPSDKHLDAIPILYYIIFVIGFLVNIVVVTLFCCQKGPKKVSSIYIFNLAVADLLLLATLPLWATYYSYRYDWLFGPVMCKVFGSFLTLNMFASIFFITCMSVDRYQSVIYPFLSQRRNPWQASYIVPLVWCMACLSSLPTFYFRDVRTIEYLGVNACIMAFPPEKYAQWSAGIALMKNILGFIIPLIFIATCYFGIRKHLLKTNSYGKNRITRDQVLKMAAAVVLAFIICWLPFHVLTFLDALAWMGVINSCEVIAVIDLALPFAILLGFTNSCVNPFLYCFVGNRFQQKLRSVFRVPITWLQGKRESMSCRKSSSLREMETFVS
Description: Reagents were purchased from Sigma-Aldrich, unless otherwise specified. Dialyzed fetal bovine serum (FBS) was from Life Technologies (cat. no. 10073772). Valiscreen® human angiotensin AT2 receptor cell line (cat. no. ES-070-C), [^125I]CGP 42112A (cat. no. NEX324025UC) and MicroScint™ 40 (cat. no. 6013641) were purchased from PerkinElmer. CGP 42112A (cat. no. 2569) and PD 123,319 ditrifluoroacetate (cat. no. 1361) were from Tocris Biosciences.
• 1. Growth medium • EX-CELL® CHO DHFR^− medium • 10% FBS, dialysed • 1 mM sodium pyruvate • 2 mM L-glutamine • 2. Harvesting buffer • PBS • 2 mM EDTA • 3. Suspension buffer • 50 mM Tris-HCl, pH 7.4 • 10 mM EDTA • 4. Resuspension buffer • 50 mM Tris-HCl, pH 7.4 • 0.1 mM EDTA • 0.1% sucrose • 5. Binding assay buffer • 50 mM Tris-HCl, pH 7.4 • 5 mM MgCl2 • 1 mM EDTA • 0.1% gelatin • 6. Wash buffer • 50 mM Tris-HCl, pH 7.4 Procedure for Membrane Preparation • Valiscreen® CHO-K1 cells stably expressing the human AT2 receptor were cultured in growth medium. • Cells were seeded into T-175 flasks and grown to 70-80% confluence. • Medium was removed from confluent flasks and cells were washed with warm PBS. • Cells were harvested by incubating with harvesting buffer for 10 min at 37° C., and then transferred to a centrifuge tube on ice. • Cells were centrifuged at 200 g for 5 min at 4° C. • Cell pellets were homogenised in ice-cold suspension buffer. • Homogenates were centrifuged at 40,000 g for 15 min at 4° C. • Pellets were resuspended in ice-cold resuspension buffer and centrifuged at 40,000 g for 15 min at 4° C. • Final pellets were homogenised in ice-cold resuspension buffer. • Protein concentrations were determined by BCA assay method with BSA as standard. Compound Preparation
Compounds were prepared from 10 mM stock solutions in 100% DMSO. Dilutions were made using electronic multichannel pipettes.
• Compounds dilutions were prepared in 100% DMSO at 100× final assay concentration. • Compounds were diluted in 100% DMSO to the appropriate maximal concentration. • 30 μL compound was added to row A. • 21.6 μL of 100% DMSO was added to rows B-H. • Transfer 10 μL from row A into row B (half log dilution). • Transfer 10 μL from row B into row C (half log dilution). • Transfer 10 μL from row C into row D (half log dilution). • Transfer 10 μL from row D into row E (half log dilution). • Transfer 10 μL from row E into row F (half log dilution). • Transfer 10 μL from row F into row G (half log dilution). • Transfer 10 μL from row G into row H (half log dilution). Working Plate Preparation (96-Well Plate) • Compounds were diluted 10-fold in assay buffer. • 10 μL compound solution from dose plate was transferred to corresponding well of working plate. • 90 μL assay buffer was added to the wells of working plate. • Working solutions contained 10% DMSO in assay buffer (1% DMSO final assay concentration). Controls • Total binding (high control) was determined in the absence of unlabelled ligand. A solution of 10% DMSO in assay buffer was prepared. • Non-specific binding (low control) was determined in the presence of a vast excess (10 μM) of PD 123,319. 1 mM stock solution of PD 123,319 in water was diluted 10-fold with 10% DMSO in assay buffer. Assay Plate Preparation (96-Well Plate)
15 μL compound solution was transferred to duplicate wells of assay plate. 5 compounds were tested per plate. 15 μL control solutions were transferred to columns 1 and 12 of assay plate.

[1] = Human hepatocyte stability assay; format: in vitro ADME; conditions: cryopreserved hepatocytes, 1 μM test compound, 0.5 million cells/mL, pH 7.4, 37° C., 60 min; for half-life at 1 μM: read-out: T½
Description: A human hepatocyte (cryopreserved) incubation mixture containing, 0.5 million cells/mL and phosphate buffered saline (pH 7.4) was pre-incubated at 37° C. and the reaction then initiated by the addition of 1 μM test compound. The incubations were performed in duplicate. The final organic concentration was 1% (consisting of 90% acetonitrile and 10% DMSO). Positive control markers for Phase I and II metabolism were included. Samples were removed at 6 time-points over 60 min and each reaction terminated by the addition of methanol containing internal standard. After vortexing and centrifugation, the resultant supernatant was analysed by UPLC-MS.
Intrinsic clearance is calculated from the resulting concentration-time profile.
Where C(t) is the compound concentration at time t, C(0) is the starting concentration and k is the elimination rate constant.
The ln(concentration) vs time profile can be mathematically described by: ln C(t)=ln C(0)−kt
Where k represents the slope of the regression line.
Solving for k results in:
Once k is known, half-life (t½) can be calculated using: […]
Furthermore, CLint can be calculated by introducing the cell density ([cell]) in 10^6/ml: […]

Ki (human AT2 receptor) | hepatocyte CLint at 1 μM [1] | half-life at 1 μM [1] | Structure (SMILES)
3.7 nM | < 3 µL/min/1e6 cells | > 7.67 h | C[C@@]1(C(=O)O)C[C@H](N2CCCOc3cc(F)c(F)cc32)CN1C(=O)C(c1ccccc1)c1ccccc1 [Compound 32, (2S,4S)-4-(7,8-Difluoro-3,4-dihydrobenzo[b][1,4]oxazepin-5(2H)-yl)-1-(2,2-diphenylacetyl)-2-methylpyrrolidine-2-carboxylic acid]
2.6 nM | < 3 µL/min/1e6 cells | > 7.67 h | O=C(NS(=O)(=O)C1CC1)[C@@H]1C[C@H](N2CCCOc3cc(F)c(F)cc32)CN1C(=O)C(c1ccccc1)c1ccccc1 [Compound 36, (2S,4S)—N-(Cyclopropylsulfonyl)-4-(7,8-difluoro-3,4-dihydrobenzo[b][1,4]oxazepin-5(2H)-yl)-1-(2,2-diphenylacetyl)pyrrolidine-2-carboxamide]
10 nM | – | – | O=C(O)[C@@H]1C[C@H](N2CCCS(=O)(=O)c3ccccc32)CN1C(=O)C(c1ccccc1)c1ccccc1 [Compound 34, (2S,4S)-4-(1,1-Dioxido-3,4-dihydrobenzo[b][1,4]thiazepin-5(2H)-yl)-1-(2,2-diphenylacetyl)pyrrolidine-2-carboxylic acid]
9.8 nM | – | – | O=C(O)[C@@H]1C[C@H](N2CCCCc3cc(F)ccc32)CN1C(=O)C(c1ccccc1)c1ccccc1 [Compound 5, (2S,4S)-1-(2,2-Diphenylacetyl)-4-(7-fluoro-2,3,4,5-tetrahydro-1H-benzo[b]azepin-1-yl)pyrrolidine-2-carboxylic acid]
1.6 nM | – | – | O=C(O)[C@@H]1C[C@@H](N2CCCOc3ccc(F)cc32)CN1C(=O)C(c1ccccc1)c1ccccc1 [Compound 25, (2S,4R)-1-(2,2-Diphenylacetyl)-4-(7-fluoro-3,4-dihydrobenzo[b][1,4]oxazepin-5(2H)-yl)pyrrolidine-2-carboxylic acid]
225 nM | – | – | O=C(O)[C@@H]1C[C@H](N2CCc3ccccc32)CN1C(=O)C(c1ccccc1)c1ccccc1 [Compound 29, (2S,4S)-1-(2,2-Diphenylacetyl)-4-(indolin-1-yl)pyrrolidine-2-carboxylic acid]
81 nM | – | – | O=C(O)[C@@H]1C[C@H](N2CCCCc3cccnc32)CN1C(=O)C(c1ccccc1)c1ccccc1 [Compound 12, (2S,4S)-1-(2,2-Diphenylacetyl)-4-(5,6,7,8-tetrahydro-9H-pyrido[2,3-b]azepin-9-yl)pyrrolidine-2-carboxylic acid]
2.8 nM | – | – | O=C(O)[C@@H]1C[C@H](N2CCCCc3cc(F)c(F)cc32)CN1C(=O)C(c1ccccc1)c1ccccc1 [Compound 27, (2S,4S)-4-(7,8-Difluoro-2,3,4,5-tetrahydro-1H-benzo[b]azepin-1-yl)-1-(2,2-diphenylacetyl)pyrrolidine-2-carboxylic acid]
16.9 nM | – | – | CN(C)S(=O)(=O)NC(=O)[C@@H]1C[C@H](N2CCCCc3ccccc32)CN1C(=O)C(c1ccccc1)c1ccccc1 [Compound 44, (2S,4S)—N—(N,N-Dimethylsulfamoyl)-1-(2,2-diphenylacetyl)-4-(2,3,4,5-tetrahydro-1H-benzo[b]azepin-1-yl)pyrrolidine-2-carboxamide]
11 nM | – | – | C[C@@]1(C(=O)NS(=O)(=O)C2CC2)C[C@H](N2CCCOc3cc(F)c(F)cc32)CN1C(=O)C(c1ccccc1)c1ccccc1 [Compound 42b, (2S,4S)—N-(cyclopropylsulfonyl)-4-(7,8-difluoro-3,4-dihydrobenzo[b][1,4]oxazepin-5(2H)-yl)-1-(2,2-diphenylacetyl)-2-methylpyrrolidine-2-carboxamide]
2.7 nM | – | – | O=C(O)[C@@H]1C[C@H](N2CCCCc3ccccc32)CN1C(=O)C(c1ccccc1)c1ccccc1 [Compound 1, (2S,4S)-1-(2,2-Diphenylacetyl)-4-(2,3,4,5-tetrahydro-1H-benzo[b]azepin-1-yl)pyrrolidine-2-carboxylic acid]
3.1 nM | – | – | O=C(O)[C@@H]1C[C@H](N2CCCOc3cc(F)ccc32)CN1C(=O)C(c1ccccc1)c1ccccc1 [Compound 9, (2S,4S)-1-(2,2-diphenylacetyl)-4-(8-fluoro-3,4-dihydrobenzo[b][1,4]oxazepin-5(2H)-yl)pyrrolidine-2-carboxylic acid]
2.3 nM | – | – | O=C(O)[C@@H]1C[C@H](N2CCCOc3cc(F)c(F)cc32)CN1C(=O)C(c1ccccc1)c1ccccc1 [Compound 21, (2S,4S)-4-(7,8-difluoro-3,4-dihydrobenzo[b][1,4]oxazepin-5(2H)-yl)-1-(2,2-diphenylacetyl)pyrrolidine-2-carboxylic acid]
